The source of these data is article PMC12284618 (Chemistry (Weinheim an Der Bergstrasse, Germany), 2025).

Structures can show the parent of a compound that is named as a salt. Where two headings read alike, the source gives them in different places.

Experiment [1] has as its target T1, soluble CI‐M6P/IGF2R:D1–D15 (Homo sapiens, UniProt P11717).
T1 construct: domains 1–15 (residues AA 41–2304); gp67 signal peptide (X1) (N, cleaved yes); 6‐His‐tag (C); PreScission protease cutting site (C); TwinStrep‐tag (C); made in house; host or cells: Spodoptera frugiperda Sf9 insect cells (baculovirus, pFastBac-1), secreted into the medium
Briefly: Reverse saturation fluorescence polarization binding of fluorescent glycopeptide 1. From the text: The gene encoding human CI‐M6P/IGF2R domains 1–15 (residues AA 41–2304) fused to an N‐terminal gp67 signal peptide ([…]) and C‐terminal 6‐His‐tag, PreScission protease cutting site, and TwinStrep‐tag in pFastBac‐1 vector was used for bacmid generation in DH10Bac E. coli (Thermo Fisher Scientific). The recombinant bacmid DNA was purified using alkaline extraction and transfected using ExpiFectamine‐Sf (Thermo Fisher Scientific) into Spodoptera frugiperda 9 (Sf9) cells. […] Expression of the recombinant protein was assessed by SDS‐PAGE and Western Blot analysis. […]
We employed a fluorescence polarization (FP) binding assay to assess the binding affinity of the tested compounds for a soluble CI‐M6P/IGF2R ectodomain construct. […] Upon binding to the CI‐M6P/IGF2R protein, the probe's rotation slows, resulting in increased fluorescence polarization. This shift is quantified as anisotropy (or polarization), which reflects the ratio of bound to free probe, enabling binding affinity estimation without phase separation.^[ [26] ^] […]
We first analyzed the interaction between soluble CI‐M6P/IGF2R:D1–D15 and the fluorescent probe (glycopeptide 1) using a reverse saturation binding assay in solution. […]

In experiment [2] the target is T2, CI‐M6P/IGF2R:D1–D15 (Homo sapiens, UniProt P11717).
T2 construct: domains 1–15 (residues AA 41–2304); gp67 signal peptide (X1) (N, cleaved yes); 6‐His‐tag (C); PreScission protease cutting site (C); TwinStrep‐tag (C); made in house; host or cells: Spodoptera frugiperda Sf9 insect cells (baculovirus, pFastBac-1), secreted into the medium
Briefly: Competitive fluorescence polarization assay (displacement of fluorescent glycopeptide 1). Particulars: for Potency (relative binding potency): (IC50 of compound 2 / IC50 of compound) × 100. It counts as binding. The protocol: The recombinant bacmid DNA was purified using alkaline extraction and transfected using ExpiFectamine‐Sf (Thermo Fisher Scientific) into Spodoptera frugiperda 9 (Sf9) cells. The first generation of recombinant baculovirus was harvested after 5 days post‐transfection and amplified in subsequent shaking cultures of Sf9 in SF‐900 II serum‐free media (Thermo Fisher Scientific) at 27 °C and 130 rpm at a density of 2 × 10^6 cells/ml. Media containing viral particles were harvested after four days, and the amplification step was repeated to obtain high‐titer P2 stock, which was then used in large‐scale expression. […] The column was washed with a buffer containing 100 mM Tris‐HCl and 150 mM NaCl (pH 8.0), and the recombinant protein was eluted using the same buffer supplemented with 50 mM biotin. Expression of the recombinant protein was assessed by SDS‐PAGE and Western Blot analysis. Folding was checked by a competitive binding assay with radioactively labeled IGF2 (a natural ligand of IGF2R).^[ [25] ^]
We employed a fluorescence polarization (FP) binding assay to assess the binding affinity of the tested compounds for a soluble CI‐M6P/IGF2R ectodomain construct. This method monitors the rotational speed of a fluorescent probe—specifically, a fluorescein‐labeled glycopeptide 1. Upon binding to the CI‐M6P/IGF2R protein, the probe's rotation slows, resulting in increased fluorescence polarization. This shift is quantified as anisotropy (or polarization), which reflects the ratio of bound to free probe, enabling binding affinity estimation without phase separation.^[ [26] ^]
In all experiments, the compounds were dissolved in water and serially diluted with water in Echo Qualified 384‐Well PP Source Microplates using a BRAVO pipetting station (Agilent, USA). The compounds were then pre‐spotted onto black 384‐well low‐volume round‐bottom plates (Corning, USA) using an Echo 650 liquid handler (Beckman Coulter, USA) to obtain the desired final compound concentrations. Subsequently, 5 µL of the prepared mixture (soluble receptor and glycopeptide 1 in 100 mM Tris/HCl, 150 mM NaCl, pH 8.0) was added using either a MANTIS Liquid Dispenser (Formulatrix, Dubai, United Arab Emirates) or a Clicktip pipette (Thermo Fischer Scientific, USA). The plate was sealed with Duck Tape (Hampton Research USA) to prevent evaporation, shaken for 10 s at 800 rpm, centrifuged to remove bubbles, and then incubated at room temperature.
Next, competitive FP experiments were performed using a procedure analogous to previously reported methods.^[ [27] ^] […] Subsequently, 5 µL of a mixture containing CI‐M6P/IGF2R:D1–D15 (final concentration: 300 nM) and fluorescent glycopeptide 1 (final concentration: 10 nM) was added using a MANTIS Liquid Dispenser. The anisotropy data from the plate reader were plotted against the compound concentration using GraphPad Prism 8.0. A nonlinear regression analysis, “log [Inhibitor] versus response – Variable slope (four parameters),” was used to calculate the IC₅₀ values (the concentration at which half‐maximal inhibition is achieved) for each competition experiment. Relative binding affinities were calculated as (IC₅₀ of compound 2 / IC₅₀ of each compound) × 100 (%).
A general note: In fluorescence polarisation assays a small probe gives low polarisation when free and higher when bound to something large.

Experiment [3] has as its target CI‐M6P/IGF2R. Further details: method as in PMID 3003148. Particulars: monomeric M6P; cited from earlier work.
The mark [4] stands for this setting: receptor 300 nM, glycopeptide 1 10 nM, pH 8.0, mean of two independent measurements in triplicate ± S.D., read-out: IC50.
Where [5] appears, read: receptor 300 nM, glycopeptide 1 10 nM, pH 8.0, mean of two independent measurements in triplicate ± S.D.

The Kd is the free concentration of one partner at which half of the binding sites on the other are occupied at equilibrium, for simple one-to-one binding. `NCCCC[C@H](NC(=O)[C@H](Cc1cn(CCO[C@H]2O[C@H](CCP(=O)(O)O)[C@@H](O)[C@H](O)[C@@H]2O)nn1)NC(=O)[C@H](CO)NC(=O)[C@H](Cc1cn(CCO[C@H]2O[C@H](CCP(=O)(O)O)[C@@H](O)[C@H](O)[C@@H]2O)nn1)NC(=O)[C@H](CCCCN)NC(=O)[C@H](Cc1cn(CCO[C@H]2O[C@H](CCP(=O)(O)O)[C@@H](O)[C@H](O)[C@@H]2O)nn1)NC(=O)[C@H](CO)NC(=O)[C@H](Cc1cn(CCO[C@H]2O[C@H](CCP(=O)(O)O)[C@@H](O)[C@H](O)[C@@H]2O)nn1)NC(=O)[C@H](CCCCN)NC(=O)[C@H](Cc1cn(CCO[C@H]2O[C@H](CCP(=O)(O)O)[C@@H](O)[C@H](O)[C@@H]2O)nn1)NC(=O)[C@H](CO)NC(=O)CNC(=O)c1ccc2c(c1)C(=O)OC21c2ccc(O)cc2Oc2cc(O)ccc21)C(N)=O` [Compound 1]: the Kd in experiment [1] (glycopeptide 1 10 nM titrated with receptor 0-1500 nM, pH 8.0, read-out: dissociation constant (Kd)) is about 400 nM. Also, the “cooperativity coefficient (n), Hill koef” value in experiment [1] (specific binding with Hill slope, glycopeptide 1 10 nM) was −2.35.

Broadly, the IC50 is the midpoint of a concentration-inhibition curve. Consider `CC(=O)N[C@@H](Cc1c[nH]c2ccccc12)C(=O)N[C@@H](Cc1ccccc1)C(=O)NCC(=O)N[C@@H](CO)C(=O)N[C@@H](Cc1cn(CCO[C@H]2O[C@H](CCP(=O)(O)O)[C@@H](O)[C@H](O)[C@@H]2O)nn1)C(=O)N[C@@H](CCCCN)C(=O)N[C@@H](Cc1cn(CCO[C@H]2O[C@H](CCP(=O)(O)O)[C@@H](O)[C@H](O)[C@@H]2O)nn1)C(=O)N[C@@H](CO)C(=O)N[C@@H](Cc1cn(CCO[C@H]2O[C@H](CCP(=O)(O)O)[C@@H](O)[C@H](O)[C@@H]2O)nn1)C(=O)N[C@@H](CCCCN)C(=O)N[C@@H](Cc1cn(CCO[C@H]2O[C@H](CCP(=O)(O)O)[C@@H](O)[C@H](O)[C@@H]2O)nn1)C(=O)N[C@@H](CO)C(=O)N[C@@H](Cc1cn(CCO[C@H]2O[C@H](CCP(=O)(O)O)[C@@H](O)[C@H](O)[C@@H]2O)nn1)C(=O)N[C@@H](CCCCN)C(N)=O` [Compound 2], for which the “Potency (relative binding potency)” value in experiment [2] is recorded as 100.0%. Further, the IC50 in experiment [2] (setting [4]) came to 480 ± 110 nM.

`NCCCC[C@H](NC(=O)[C@H](Cc1cn(CCO[C@H]2O[C@H](CCP(=O)(O)O)[C@@H](O)[C@H](O)[C@@H]2O)nn1)NC(=O)[C@H](Cc1c[nH]c2ccccc12)NC(=O)[C@@H](N)Cc1cn(CCO[C@H]2O[C@H](CCP(=O)(O)O)[C@@H](O)[C@H](O)[C@@H]2O)nn1)C(=O)N[C@@H](Cc1cn(CCO[C@H]2O[C@H](CCP(=O)(O)O)[C@@H](O)[C@H](O)[C@@H]2O)nn1)C(N)=O` [Compound 3]: the IC50 in experiment [2] came out at 490 ± 40 nM. The same measure, in the same setting: to `CC(=O)NCCCC[C@H](NC(=O)[C@H](Cc1cn(CCO[C@H]2O[C@H](CCP(=O)(O)O)[C@@H](O)[C@H](O)[C@@H]2O)nn1)NC(=O)[C@H](Cc1c[nH]c2ccccc12)NC(=O)[C@H](Cc1cn(CCO[C@H]2O[C@H](CCP(=O)(O)O)[C@@H](O)[C@H](O)[C@@H]2O)nn1)NC(C)=O)C(=O)N[C@@H](Cc1cn(CCO[C@H]2O[C@H](CCP(=O)(O)O)[C@@H](O)[C@H](O)[C@@H]2O)nn1)C(N)=O` [Compound 4] belongs 490 ± 70 nM. Turning to `NC(=O)[C@H](Cc1cn(CCO[C@H]2O[C@H](CCP(=O)(O)O)[C@@H](O)[C@H](O)[C@@H]2O)nn1)NC(=O)[C@H](Cc1c[nH]c2ccccc12)NC(=O)[C@@H](N)Cc1cn(CCO[C@H]2O[C@H](CCP(=O)(O)O)[C@@H](O)[C@H](O)[C@@H]2O)nn1` [Compound 5], the IC50 in experiment [2] (setting [4]) was found to be 480 ± 100 nM. Still for that read-out and setting: to `CC(=O)N[C@@H](Cc1cn(CCO[C@H]2O[C@H](CCP(=O)(O)O)[C@@H](O)[C@H](O)[C@@H]2O)nn1)C(=O)N[C@@H](Cc1c[nH]c2ccccc12)C(=O)N[C@@H](Cc1cn(CCO[C@H]2O[C@H](CCP(=O)(O)O)[C@@H](O)[C@H](O)[C@@H]2O)nn1)C(N)=O` [Compound 6] belongs 660 ± 900 nM.

As for `CO[C@H]1O[C@H](CCP(=O)(O)O)[C@@H](O)[C@H](O)[C@@H]1O` [Compound 8, Methyl 6-deoxy-6-phosphonomethyl-α-D-mannopyranoside bis(triethylammonium) salt], the “Potency (relative binding potency)” value in experiment [2] was found to be 4.1%. In addition, the IC50 in experiment [2] (values used for comparison with calculations, read-out: experimental IC50 (as listed in Tables S1-S3)) is 11500 nM. Take `CO[C@H]1O[C@H](CP(=O)(O)O)[C@@H](O)[C@H](O)[C@@H]1O` [Compound 9]: the “Potency (relative binding potency)” value in experiment [2] is 0.35%. For the same compound, in experiment [2] (setting [4]), the IC50 stood at 137000 ± 2000 nM. For the compound `CO[C@H]1O[C@H](CCc2nnn[nH]2)[C@@H](O)[C@H](O)[C@@H]1O` [Compound 10], in experiment [2] (setting [5]), the IC50 entry is “did not bind and unmeasurably low and n.b”. Consider `CO[C@H]1O[C@H](CCC(=O)O)[C@@H](O)[C@H](O)[C@@H]1O` [Compound 11], for which, in experiment [2], the “fold reduction in binding affinity compared to native M6P 7” value is “fivefold” and the “Potency (relative binding potency)” value is reported as 0.85%. In addition, the half-inhibitory concentration (IC50) in experiment [2] (setting [4]) is 56000 ± 12000 nM. For `CO[C@H]1O[C@H](Cc2nnn[nH]2)[C@@H](O)[C@H](O)[C@@H]1O` [Compound 12], the 50% inhibitory concentration (IC50) entry in experiment [2] (setting [5]) was “did not bind and unmeasurably low and n.b”. Consider `O=P(O)(O)CC[C@H]1O[C@H](C/C=C/c2ccc(O)cc2)[C@@H](O)[C@@H](O)[C@@H]1O` [Compound 13], for which, in experiment [2], the “fold increase in binding affinity compared to compound 8” value was “almost threefold” and the “Potency (relative binding potency)” value turned out to be 11.3%. For the same compound, the IC50 in experiment [2] (setting [4]) turned out to be 4200 ± 20 nM. Take mannose‐6‐phosphate [Compound 7]: in experiment [3], the Kd is about 7000 nM.
